The record followed here is patent US8815210B2, “Diagnostic composition comprising plasma cations having superior safety profile” (GE Healthcare AS, priority 2009, dated 2014).

Series [1] in a line: Viscosity, calibrated U-tube technique. It counts as physicochemical. The following applies: 320 mgI/ml, 20° C. On the procedure:
The viscosity of compound I was determined at 20° C. and 37° C. at three different concentrations. The viscosity at 320 mgI/ml and 20° C. is around 24 mPas.
The viscosity of Compound I was determined at two different temperatures, 20° C. and 37° C. and three different concentrations, 246, 295 and 313 mgI/ml. The test solutions were isotonic through adjustment of the osmolality with NaCl and had been sterilized by autoclavation. The density of the solutions was determined using a Density meter, DMA58 (Anton Paar). A calibrated U-tube technique was used, where the time of fall was used as a measure of dynamic viscosity. The viscosity of compound I was determined at 20° C. and 37° C. at three different concentrations. In comparison with Visipaque, the viscosity at 320 mgI/ml and 20° C. is similar, around 24 mPas.

The subject of series [2] is Sca:SD rats. The following applies: rat, in vivo. On the procedure:
Young adult male Sca:SD rats (Scanbur, Sweden), weighing 200±20 g, were injected intravenously at a rate of 1.2 ml/min with either Compound I (340 mgI/mL, 286 mosmol/kg), iodixanol (321 mgI/mL, 284 mosmol/kg), osmotic control mannitol (283 mosmol/kg), or saline (290 mosmol/kg), administered as 2 separate doses 4 hours apart. For the interim kill animals (day 2 post-treatment), Compound I and iodixanol were dosed at 8, 10 and 12.8 gI/kg, corresponding to total dose volumes of 23.7, 29.7 and 38.0 ml/kg, and 25, 31.3 and 40 ml/kg, respectively, whereas for mannitol and saline, the dose volume was 40 ml/kg. For the 7 day terminal kill animals, there were 4 dose groups; Compound I and iodixanol (12.8 gI/kg), and saline and mannitol (40 mL/kg). In all cases, each group included 8 animals.
The following evaluations were made during the study; clinical signs, body weights and blood for haematology and clinical chemistry on days 0, 2 and 7, and gross observations, organ weight and histomorphological examination of tissues from the animals killed by excess intravenous thiopental injection on days 2 or 7. The day of dosing was defined as Day 0. Clinical biochemistry parameters (Na, K, Cl, PO4, Ca, AST, ALT, ALP, cholesterol, creatinine, CK, GGT, TG (triglyceride), total bilirubin, total protein, urea, albumin, LDH and GLDH were measured on a Beckman Synchron CX5 at 37° C. Haematology parameters (WBC, differential WBC, RBC, WBC/RBC ratio, Hgb, PLT, HCT, MCH, MCHC, MCV, MPV and RDW) were analyzed with an Abbott Cell-Dyn 3500 CS automated haematology analyzer. Kidneys from saline control and the 12.8 gI/kg Compound I and iodixanol groups were immerse fixed in 10% neutral buffered formalin, processed into paraffin wax, sectioned at a nominal thickness of 5 μm, stained with haematoxylin and eosin and examined by light microscopy.
The data were analysed by parametric one-way ANOVA, followed by Dunnett's post procedure test, using the 2 days and 7 days saline groups for comparison with the 2 days and 7 days iodixanol and Compound I groups. The statistical analysis was applied on day −1 (baseline), day 2 and day 7.

The subject of series [3] is normal pigs. Briefly: Haemodynamic effects after LAD injection in normal pigs without balloon occlusion (Example 2b). The following applies: 25 ml into LAD, 45 to 70 seconds after injection. The series is classed as in vivo, pig. The text has this:
FIG. 5 depicts the effect of Compound I (with and without added Ca) and Visipaque on LVSP 45 to 70 seconds from the start of injection to the LAD of normal pigs normalised to Ringer Lacate (LR) injection.
The haemodynamic effects of compositions of Compound I with and without added CaCl2 were compared to Visipaque and Iopamidol following selective administration to the LAD in normal pigs without balloon occlusion. The effects of each contrast media were normalised to any effects seen with an equivalent injection of Ringer Lactate solution, which acted as a volume and electrolyte—“ratio” control. There were a total of 12 pigs in this study, and each pig received a single CM injected 3 times at volumes of 10 ml (4 ml/sec), 20 ml (1 ml/sec) and 25 ml (0.4 ml/sec) (total of 9 CM injections in each pig). Each CM was either preceded or followed by a control injection of Ringer Lactate, and the order of each injection (volume) was randomised in each pig.

The subject of series [4] is CD25^+-depleted peripheral blood mononuclear cells. Briefly: In vitro T cell proliferation model. The series is classed as cell-based. The settings on record: 2 and 5 mg I/mL, 100 donors, positive response stimulation index ≧1.9. As for the experimental part: Generally, iodinated contrast media may cause late hypersensitivity reactions in susceptible patients from 1 hour to several days after exposure. These reactions are mainly non-serious skin eruptions such as macular, maculopapular and urticaria-like eruptions. Contrast media-induced delayed adverse reactions (DARs) such as skin eruptions appear to be caused by contrast media-reactive T cells that, upon recognizing the contrast media, proliferate and subsequently orchestrate an inflammatory reaction in the skin. The applicant has evaluated an in vitro T cell proliferation model designed to predict the relative frequency with which contrast media, such as Compound I, will cause late skin reactions in patients post-intravascular administration. Two contrast media, iodixanol and iohexol, with known rates of delayed skin reactions, and the new contrast medium, Compound I, was screened (2 and 5 mg I/mL) for in vitro T cell proliferation in CD25^+-depleted peripheral blood mononuclear cells from 100 donors representing world population HLA-DR frequencies. Positive T cell responses were evaluated according to published protocols and stimulation index values (positive response≧1.9). In vitro toxicity was tested by measuring cell viability of the first 10 donor samples incubated with test contrast media (5 mg I/mL). The results were that all major HLA-DR allotypes were represented with a frequency equivalent to the world population. No contrast media tested appeared to have a meaningful effect on cell viability. […] For iodixanol and iohexol, T cell proliferation responses for most donors occurred on days 7 and 8; statistical significance favored a reduced proliferation response to Compound I on day 8. In conclusions the model successfully established the relative frequency with which contrast media caused in vitro T cell activation. The results correlated with reported frequency of late skin reactions with two marketed contrast media and identified a lower frequency for Compound I.

“Also recorded” adds a separate entry of the source.

With `O=CN(CC(O)CN(C=O)c1c(I)c(C(=O)NCC(O)CO)c(I)c(C(=O)NCC(O)CO)c1I)c1c(I)c(C(=O)NCC(O)CO)c(I)c(C(=O)NCC(O)CO)c1I` (centres unmarked) [Compound I, 5-[formyl-[3-[formyl-[3,5-bis(2,3-dihydroxypropylcarbamoyl)-2,4,6-triiodophenyl]amino]-2-hydroxypropyl]amino]-N,N′-bis(2,3-dihydroxypropyl)-2,4,6-triiodobenzene-1,3-dicarboxamide], the viscosity result in series [1] is recorded as “around 24 mPas”. In addition, the “Proximal Tubule Vacuolation, Left Kidney” value in series [2] (male, Sca:SD, 2 day) is 3, 3, 3, 3. Moreover, in series [2] (male, Sca:SD, iv), the “duration of clinical signs” value was in the range of 2 to 3 h and the “onset of clinical signs after the first administration” value is 10 to 20 min. The adverse clinical signs result in series [2] (iv) was “mild to moderate depression and uncoordinated movements and weakness/inactivity”. Also, the “LVSP change normalised to Ringer Lactate” value in series [3] (composition with 45 mM NaCl and 0.5 mM CaCl2) is listed as −0.3 mm Hg. Moreover, the “LVSP change normalised to Ringer Lactate (mean)” value in series [3] (composition with 45 mM NaCl, no added CaCl2) is reported as −5.7 mm Hg. Moreover, the “positive T cell proliferation donor samples” value in series [4] was “fewer positive T cell proliferation donor samples compared with iodixanol and iohexol; also recorded: lowest capacity for stimulating in vitro T cell proliferation”.
